Like-named read-outs stand apart in the source and are kept apart here.
What was measured:
[1] = target: T1, human FLT3 protein (FLT3 (WT)) (Homo sapiens, UniProt P36888); experiment: FLT3 inhibition test (FLT3 enzyme inhibition, time-resolved fluorescence of substrate peptide phosphorylation); assay type: biochemical; conditions: GST-fused human FLT3 (564 to 993 aa), ATP 50 μM; read-out: FLT3 (WT) enzyme inhibition activity
T1 construct: human FLT3 protein (intracellular region, 564 to 993 aa); GST; purchased Carna Biosciences; host or cells: baculovirus expression system
T1 sequence (P36888 564-993): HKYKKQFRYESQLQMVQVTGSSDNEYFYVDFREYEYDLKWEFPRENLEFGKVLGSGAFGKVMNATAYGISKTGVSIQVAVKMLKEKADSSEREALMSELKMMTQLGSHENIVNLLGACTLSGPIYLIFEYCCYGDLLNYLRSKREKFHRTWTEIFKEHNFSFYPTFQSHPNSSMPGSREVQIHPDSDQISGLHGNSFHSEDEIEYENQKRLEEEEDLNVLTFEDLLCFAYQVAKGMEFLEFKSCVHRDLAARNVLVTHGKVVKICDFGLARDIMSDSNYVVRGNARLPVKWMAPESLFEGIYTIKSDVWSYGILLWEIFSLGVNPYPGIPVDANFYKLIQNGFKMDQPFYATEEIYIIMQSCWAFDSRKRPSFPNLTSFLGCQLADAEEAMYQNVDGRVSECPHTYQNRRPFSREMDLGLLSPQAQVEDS
Method: The FLT3 inhibition test was performed for the compounds of the present invention by the method described below.
A reaction mixture in a volume of 9 μL containing the FLT3 protein and a test compound of a predetermined concentration (1.2 μg of FLT3, 100 mM HEPES, 10 mM MgCl2, 25 mM NaCl, 0.01% BSA, 1 mM DTT, pH 7.5) was left standing at 25° C. for 15 minutes. […] (Toray Industries), and 3 μL (final concentration 50 μM) of ATP (Sigma-Aldrich) were added to the reaction mixture, and the mixture was shaken for 2 minutes, and then further left standing at 25° C. for 30 minutes to allow the enzymatic reaction.

Molm-13 cells = experiment: Leukemia cell proliferation inhibition test (ATPlite), Molm-13; assay type: cell-based; conditions: Homo sapiens, Molm-13, 72 hours culture, ATPlite, GI50 per method, read-out: MOLM13 cell proliferation inhibition effect
Method: (§1) A leukemia cell proliferation inhibition test was performed for the compounds of the present invention by using the leukemia cell strains MV4-11 (ATCC Number, CRL-9591) and Molm-13 (DSMZ Number, ACC554).
(§2) The leukemia cell proliferation inhibition test was performed by the method described below.
(§3) For the purpose of measuring proliferation inhibition attained with a compound, the total cell count was quantified on the basis of the total cellular ATP concentration using the ATPlite (PerkinElmer) reagent utilizing firefly luciferase. The Molm-13 or MV4-11 cells were added to the RPMI medium containing penicillin and streptomycin (penn/strep) and 10% FBS at a density of 2×10^5 cells/ml, and 50 μL (10,000 cells) of the cell suspension was inoculated to each well of a 96-well plate (Corning).
(§4) A serially diluted solution of a compound or 0.1% DMSO (solvent control) in a volume of 50 μL was added to the cells, and then the cells were cultured for 72 hours under the standard cell proliferation conditions (37° C., 5% CO2) to allow proliferation of the cells. In order to measure the proliferation of the total cells, equal volume of the ATPlite reaction mixture was added to each well in accordance with the instructions attached to ATPlite, and then luminescence count of the well was measured (relative light unit, RLU).
(§5) The RLU signal observed with the DMSO solvent control after 72 hours of the culture was defined as a signal indicating 0% inhibition, and the GI50 value for the proliferation inhibition corresponds to a concentration of a compound that provides 50% inhibition based on the proliferation of the total cells contained in the DMSO solvent control. Each data point was obtained from samples in duplicate. The GI50 values were calculated by the non-linear regression fitting (Fit Model (205)) according to a sigmoid dose-reaction equation using the XLfit software.

MV4-11 cells = experiment: Leukemia cell proliferation inhibition test (ATPlite), MV4-11; assay type: cell-based; conditions: Homo sapiens, MV4-11, 72 hours culture, ATPlite, GI50 per method, read-out: MV4-11 cell proliferation inhibition effect
Method: as §1, §2, §3, §4, §5

| IC50 [1] | IC50 (Molm-13 cells; MOLM-13, 72 h) | IC50 (MV4-11 cells; MV4-11, 72 h) | SMILES | IC50 (Molm-13 cells) | IC50 (MV4-11 cells) |
| --- | --- | --- | --- | --- | --- |
| < 0.01 µM | < 0.01 µM | < 0.01 µM | CCCNc1nc(Nc2ccnc(F)c2)ncc1C#C[C@H]1C[C@@H](NC(=O)[C@H](C)N(C)C(=O)/C=C/CN(C)C)C1 (relative stereo) [Compound 14-4, (E)-4-(Dimethylamino)-N—((S)-1-(((1S*,3R*)-3-((2-((2-fluoropyridin-4-yl)amino)-4-(propylamino)pyrimidin-5-yl)ethynyl)cyclobutyl)amino)-1-oxopropan-2-yl)-N-methyl-2-butenamide] |  |  |
| < 0.01 µM | < 0.01 µM | < 0.01 µM | C[C@@H](C(=O)N[C@H]1C[C@@H](C#Cc2cnc(Nc3ccc(C#N)cc3)nc2NC2CC2)C1)N(C)C(=O)/C=C/CN(C)C (relative stereo) [Compound 15-8, (E)-N—((S)-1-(((1S*,3R*)-3-((2-((4-Cyanophenyl)amino)-4-(cyclopropylamino)pyrimidin-5-yl)ethynyl)cyclobutyl)amino)-1-oxopropan-2-yl)-4-(dimethylamino)-N-methyl-2-butenamide] |  |  |
| < 0.01 µM | < 0.01 µM | < 0.01 µM | C[C@@H](C(=O)N[C@H]1C[C@@H](C#Cc2cnc(Nc3ccc(F)cc3)nc2NC2CC2)C1)N(C)C(=O)/C=C/CN(C)C (relative stereo) [Compound 15-9, (E)-N—((S)-1-(((1S*,3R*)-3-((4-(Cyclopropylamino)-2-((4-fluorophenyl)amino)pyrimidin-5-yl)ethynyl)cyclobutyl)amino)-1-oxopropan-2-yl)-4-(dimethylamino)-N-methyl-2-butenamide] |  |  |
| < 0.01 µM | < 0.01 µM | < 0.01 µM | COc1ccc(Nc2ncc(C#C[C@H]3C[C@@H](NC(=O)[C@H](C)N(C)C(=O)/C=C/CN(C)C)C3)c(NC3CC3)n2)cc1F (relative stereo) [Compound 15-10, (E)-N—((S)-1-(((1S*,3R*)-3-((4-(Cyclopropylamino)-2-((3-fluoro-4-methoxyphenyl)amino)pyrimidin-5-yl)ethynyl)cyclobutyl)amino)-1-oxopropan-2-yl)-4-(dimethylamino)-N-methyl-2-butenamide] |  |  |
| < 0.01 µM | 0.01 to 0.1 µM | 0.01 to 0.1 µM | CCCNc1nc(Nc2cccc(F)c2)ncc1C#C[C@H]1CCCC(NC(=O)[C@H](C)N(C)C(=O)/C=C/CN(C)C)C1 (stereo in doubt) [Compound 13-2, (E)-4-(dimethylamino)-N—((S)-1-(((1R,3S)-3-((2-((3-fluorophenyl)amino)-4-(propylamino)pyrimidin-5-yl)ethynyl)cyclohexyl)amino)-1-oxopropan-2-yl)-N-methyl-2-butenamide] |  |  |
| < 0.01 µM | 0.01 to 0.1 µM | 0.01 to 0.1 µM | C=CC(=O)N[C@@H](C)C(=O)Nc1cccc(NC(=O)c2cnc(NCCc3ccncc3)nc2NCCC)c1 [Compound 1-1, (S)—N-(3-(2-(acrylylamido)propanamido)phenyl)-4-(propylamino)-2-((2-(pyridin-4-yl)ethyl)amino)pyrimidine-5-carboxamide] |  |  |
| < 0.01 µM | 0.01 to 0.1 µM | < 0.01 µM | CCCNc1nc(NCCc2ccncc2)ncc1C(=O)Nc1cccc(NC(=O)[C@H](C)NC(=O)/C=C/CN(C)C)c1 [Compound 1-2, (S,E)-N-(3-(2-(4-(dimethylamino)-2-butenamido)propanamido)phenyl)-4-(propylamino)-2-((2-(pyridin-4-yl)ethyl)amino)pyrimidine-5-carboxamide] |  |  |
| < 0.01 µM | < 0.01 µM | < 0.01 µM | C=CC(=O)N(C)CC(=O)Nc1cccc(NC(=O)c2cnc(NCCc3ccncc3)nc2NCCC)c1 [Compound 1-3] |  |  |
| < 0.01 µM | 0.01 to 0.1 µM | < 0.01 µM | C=CC(=O)NCC(=O)NC1CCCC(NC(=O)c2cnc(NCCc3ccncc3)nc2NCCC)C1 (stereo not shown) [Compound 1-4] |  |  |
| 0.01 to 0.1 µM | 0.01 to 0.1 µM | 0.01 to 0.1 µM | C=CC(=O)NCC(=O)N(C)c1cccc(NC(=O)c2cnc(NCCc3ccncc3)nc2NCCC)c1 [Compound 1-5] |  |  |
| < 0.01 µM | 0.01 to 0.1 µM | 0.01 to 0.1 µM | C=CC(=O)NCC(=O)NC(CC)CCNC(=O)c1cnc(NCCc2ccncc2)nc1NCCC (stereo not shown) [Compound 1-6] |  |  |
| < 0.01 µM | < 0.01 µM | 0.01 to 0.1 µM | C=CC(=O)N(C)CC(=O)NC(CC)CCNC(=O)c1cnc(NCCc2ccncc2)nc1NCCC (stereo not shown) [Compound 1-7] |  |  |
| < 0.01 µM | 0.01 to 0.1 µM | < 0.01 µM | CCCNc1nc(NCCc2ccncc2)ncc1C(=O)Nc1ccc(C)c(NC(=O)CNC(=O)/C=C/CN(C)C)c1 [Compound 1-8] |  |  |
| < 0.01 µM | 0.01 to 0.1 µM | < 0.01 µM | CCCNc1nc(NCCc2ccncc2)ncc1C(=O)Nc1ccc(OC)c(NC(=O)CNC(=O)/C=C/CN(C)C)c1 [Compound 1-9] |  |  |
| < 0.01 µM | < 0.01 µM | < 0.01 µM | CCCNc1nc(NCCc2ccncc2)ncc1C(=O)Nc1ccc(OC)c(NC(=O)CN(C)C(=O)/C=C/CN(C)C)c1 [Compound 1-10] |  |  |
| < 0.01 µM | 0.01 to 0.1 µM | 0.01 to 0.1 µM | CCCNc1nc(NCCc2ccncc2)ncc1C(=O)NCCC(CC)NC(=O)CNC(=O)/C=C/CN(C)C (stereo not shown) [Compound 1-11] |  |  |
| < 0.01 µM | 0.01 to 0.1 µM | < 0.01 µM | CCCNc1nc(NCCc2ccncc2)ncc1C(=O)NCCC(CC)NC(=O)CN(C)C(=O)/C=C/CN(C)C (stereo not shown) [Compound 1-12] |  |  |
| < 0.01 µM | 0.01 to 0.1 µM | 0.01 to 0.1 µM | C=CC(=O)NCC(=O)NCCCNC(=O)c1cnc(NCCc2ccncc2)nc1NCCC [Compound 2-2, N-(3-(2-(acrylylamido)actamido)propyl)-4-(propylamino)-2-((2-(pyridin-4-yl)ethyl)amino)pyrimidine-5-carboxamide] |  |  |
| < 0.01 µM | 0.01 to 0.1 µM | 0.01 to 0.1 µM | C=CC(=O)N[C@H](C)C(=O)Nc1cccc(NC(=O)c2cnc(NCCc3ccncc3)nc2NCCC)c1 [Compound 2-3] |  |  |
| < 0.01 µM | 0.01 to 0.1 µM | < 0.01 µM | C=CC(=O)NC(C)(C)C(=O)Nc1cccc(NC(=O)c2cnc(NCCc3ccncc3)nc2NCCC)c1 [Compound 2-4] |  |  |
|  | 0.1 to 1 µM | 0.01 to 0.1 µM | CCCNc1nc(Nc2ccc(C(N)=O)cc2)ncc1C(=O)NCCCNC1CCCC[C@@H]1NC(=O)/C=C/CN(C)C (stereo partly shown) [Compound 3-25] |  |  |
| < 0.01 µM |  |  | CCCNc1nc(Nc2ccc(C(N)=O)cc2)ncc1C(=O)NCCCN[C@@H]1CCCC[C@@H]1NC(=O)/C=C/CN(C)C [Compound 3-25] |  |  |
|  | < 0.01 µM | < 0.01 µM | CCCNc1nc(Nc2ccc(C#N)cc2)ncc1C#CCCCNC(=O)[C@H](C)N(C)C(=O)/C=C/CN(C)C [Compound 7-5, (S,E)-N-(1-((5-(2-((4-Cyanophenyl)amino)-4-(propylamino)pyrimidin-5-yl)-4-pentyn-1-yl)amino)-1-oxopropan-2-yl)-4-(dimethylamino)-N-methyl-2-butenamide] |  |  |
|  | < 0.01 µM | < 0.01 µM | CCCNc1nc(Nc2ccc(C#N)cc2)ncc1C#CCCCNC(=O)[C@@H](C)N(C)C(=O)/C=C/CN(C)C [Compound 7-32] |  |  |

| SMILES | IC50 [1] | IC50 (Molm-13 cells; MOLM-13, 72 h) | IC50 (MV4-11 cells; MV4-11, 72 h) | IC50 (Molm-13 cells) | IC50 (MV4-11 cells) |
| --- | --- | --- | --- | --- | --- |
| C=CC(=O)NCC(=O)Nc1cccc(NC(=O)c2cnc(NCCc3ccncc3)nc2NCCC)c1 [Compound 2-1, N-(3-(2-(acrylylamido)acetamido)phenyl)-4-(propylamino)-2-((2-(pyridin-4-yl)ethyl)amino)pyrimidine-5-carboxamide] | < 0.01 µM |  |  | 0.01 to 0.1 µM | 0.01 to 0.1 µM |
